# Measurements taken from patent publication US7265103B2, “Substituted amino isoxazoline derivatives and their use as anti-depressants” (Janssen Pharmaceutica NV., priority 2002, dated 2007).
# Molecular target: T1, h5-HT transporter (Homo sapiens, UniProt P31645)
# T1 construct: Human platelet membranes (Oceanix Biosciences Corporation, Hanover, Md., USA) were thawed; tissue Oceanix Biosciences Corporation; host or cells: human platelet membranes
# Assay: Radioligand binding experiment for 5-HT transporter ([3H]paroxetine)
# Settings: human platelet membranes, [3H]paroxetine 0.5 nM
# Procedure, shortened: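 Competition binding on human platelet membranes (50-100 μg protein) in 50 mM Tris-HCl, 120 mM NaCl, 5 mM KCl with 0.5 nM [3H]paroxetine, 60 min at 25 °C, filtration and scintillation counting. Non-specific binding defined with 1 μM imipramine; pIC50 from nonlinear sigmoidal fits of percent total binding.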
# T1 sequence (P31645 whole entry): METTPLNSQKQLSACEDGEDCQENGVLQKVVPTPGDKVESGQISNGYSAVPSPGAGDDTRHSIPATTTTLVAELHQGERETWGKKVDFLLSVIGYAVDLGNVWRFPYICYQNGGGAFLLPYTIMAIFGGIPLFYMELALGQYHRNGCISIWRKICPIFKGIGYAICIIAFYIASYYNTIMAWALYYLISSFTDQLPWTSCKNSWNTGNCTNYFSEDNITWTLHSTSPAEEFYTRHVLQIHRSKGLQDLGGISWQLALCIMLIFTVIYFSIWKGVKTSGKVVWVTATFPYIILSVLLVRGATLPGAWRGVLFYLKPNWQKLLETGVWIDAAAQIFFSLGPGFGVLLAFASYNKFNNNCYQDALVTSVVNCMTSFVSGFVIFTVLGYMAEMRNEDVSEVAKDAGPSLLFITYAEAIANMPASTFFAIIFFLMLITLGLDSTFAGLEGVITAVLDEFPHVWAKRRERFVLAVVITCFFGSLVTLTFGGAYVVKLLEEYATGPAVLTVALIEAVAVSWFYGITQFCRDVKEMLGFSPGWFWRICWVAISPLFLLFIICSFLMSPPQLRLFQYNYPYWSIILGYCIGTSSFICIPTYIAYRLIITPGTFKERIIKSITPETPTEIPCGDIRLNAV
row,SMILES,IC50 [nM]
1,C/C(=C\c1ccccc1)CN1CCN(CC2ON=C3c4ccc(N)cc4OCC32)CC1 (centres unmarked) [Compound 5],100
2,CC(=Cc1ccc(F)cc1)CN1CCN(CC2ON=C3c4ccc(N5CCN(c6ccccc6)CC5)cc4OCC32)CC1 (centres unmarked) [Compound 79],200
3,CC(=Cc1ccc(F)cc1)CN1CCN(CC2ON=C3c4ccc(NCCN5CCCC5)cc4OCC32)CC1 (centres unmarked) [Compound 28],3.16
4,C/C(=C\c1ccc(F)cc1)CN1CCN(CC2ON=C3c4cc5c(cc4OCC32)NCCO5)CC1 (centres unmarked) [Compound 90],15.8

# Further compounds by falling IC50, results first:
row,IC50 [nM],SMILES
1,39.8,CC(=Cc1ccccc1)CN1CCN(CC2ON=C3c4ccc(N(S(C)(=O)=O)S(C)(=O)=O)cc4OCC32)CC1 (centres unmarked) [Compound 66]
2,31.6,C/C(=C\c1ccccc1)CN1CCN(CC2ON=C3c4ccc(NCc5ccccc5)cc4OCC32)CC1 (centres unmarked) [Compound 2]
3,10,COCC(=O)N1CCOc2cc3c(cc21)OCC1C3=NOC1CN1CCN(C/C(C)=C/c2ccccc2)CC1 (centres unmarked) [Compound 15]
4,7.94,COc1cc2c(cc1N1CCN(C)CC1)OCC1C2=NOC1CN1CCN(CC(C)=Cc2ccccc2)CC1 (centres unmarked) [Compound 75]
5,3.16,COc1cc2c(cc1NCCN1CCCC1)OCC1C2=NOC1CN1CCN(CC(C)=Cc2ccccc2)CC1 (centres unmarked) [Compound 26]

# Tested on: not given
# Assay: not given
# Settings: not given
row,SMILES,melting point [°C]
1,C/C(=C\c1ccccc1)CN1CCN(CC2ON=C3c4ccc(N)cc4OCC32)CC1 (centres unmarked) [Compound 5],134.1 to 136.2
2,CC(=Cc1ccc(F)cc1)CN1CCN(CC2ON=C3c4ccc(N5CCN(c6ccccc6)CC5)cc4OCC32)CC1 (centres unmarked) [Compound 79],203.5 to 206.2
3,CC(=Cc1ccc(F)cc1)CN1CCN(CC2ON=C3c4ccc(NCCN5CCCC5)cc4OCC32)CC1 (centres unmarked) [Compound 28],108.3 to 121.8
4,C/C(=C\c1ccc(F)cc1)CN1CCN(CC2ON=C3c4cc5c(cc4OCC32)NCCO5)CC1 (centres unmarked) [Compound 90],160.6 to 172.2

# Now from value to compound:
row,melting point [°C],SMILES
1,201.8 to 202.9,CC(=Cc1ccccc1)CN1CCN(CC2ON=C3c4ccc(N(S(C)(=O)=O)S(C)(=O)=O)cc4OCC32)CC1 (centres unmarked) [Compound 66]
2,108.9 to 114.7,C/C(=C\c1ccccc1)CN1CCN(CC2ON=C3c4ccc(NCc5ccccc5)cc4OCC32)CC1 (centres unmarked) [Compound 2]
3,118.9 to 127.6,COCC(=O)N1CCOc2cc3c(cc21)OCC1C3=NOC1CN1CCN(C/C(C)=C/c2ccccc2)CC1 (centres unmarked) [Compound 15]
4,142.8 to 144.4,COc1cc2c(cc1N1CCN(C)CC1)OCC1C2=NOC1CN1CCN(CC(C)=Cc2ccccc2)CC1 (centres unmarked) [Compound 75]
5,120.4 to 123,COc1cc2c(cc1NCCN1CCCC1)OCC1C2=NOC1CN1CCN(CC(C)=Cc2ccccc2)CC1 (centres unmarked) [Compound 26]

# Molecular target: T2, hα2C receptor (Homo sapiens, UniProt P18825)
# T2 construct: expressed in transfected cells; host or cells: CHO cells
# T2 sequence (P18825 1-462): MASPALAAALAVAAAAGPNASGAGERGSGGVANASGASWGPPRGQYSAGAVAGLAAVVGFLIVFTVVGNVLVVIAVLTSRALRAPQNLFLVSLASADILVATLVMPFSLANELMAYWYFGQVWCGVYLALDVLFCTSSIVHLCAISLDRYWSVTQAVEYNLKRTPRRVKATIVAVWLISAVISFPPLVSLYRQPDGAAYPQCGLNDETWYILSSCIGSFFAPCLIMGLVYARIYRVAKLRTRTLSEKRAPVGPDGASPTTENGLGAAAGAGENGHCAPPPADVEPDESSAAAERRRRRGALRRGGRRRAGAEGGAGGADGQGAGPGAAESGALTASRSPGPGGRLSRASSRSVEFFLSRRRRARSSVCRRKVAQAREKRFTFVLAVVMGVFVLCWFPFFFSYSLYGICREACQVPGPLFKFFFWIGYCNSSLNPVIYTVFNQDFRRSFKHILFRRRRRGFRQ
# Assay: Radioligand binding experiment for α2C-adrenergic receptor ([3H]-raulwolscine)
# Settings: CHO cell membranes with human α2C receptor, [3H]raulwolscine 1 nM; read-out: pIC50 α2C (converted)
# Procedure, shortened: (§1)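 Membranes from CHO cells stably expressing human α2A or α2C receptors (sodium butyrate-induced) incubated with 1 nM [3H]raulwolscine in 25 mM glycylglycine pH 8.0 for 60 min at 25° C, then filtered. Non-specific binding defined with 1 μM oxymetazoline (α2A) or 1 μM spiroxatrine (α2C); pIC50 from sigmoidal competition curves.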
row,SMILES,IC50 [nM]
1,C/C(=C\c1ccccc1)CN1CCN(CC2ON=C3c4ccc(N)cc4OCC32)CC1 (centres unmarked) [Compound 5],3.98
2,CC(=Cc1ccc(F)cc1)CN1CCN(CC2ON=C3c4ccc(N5CCN(c6ccccc6)CC5)cc4OCC32)CC1 (centres unmarked) [Compound 79],7.94
3,CC(=Cc1ccc(F)cc1)CN1CCN(CC2ON=C3c4ccc(NCCN5CCCC5)cc4OCC32)CC1 (centres unmarked) [Compound 28],3.98
4,C/C(=C\c1ccc(F)cc1)CN1CCN(CC2ON=C3c4cc5c(cc4OCC32)NCCO5)CC1 (centres unmarked) [Compound 90],1.58

# Results, then the compound that gave them:
row,IC50 [nM],SMILES
1,0.501,CC(=Cc1ccccc1)CN1CCN(CC2ON=C3c4ccc(N(S(C)(=O)=O)S(C)(=O)=O)cc4OCC32)CC1 (centres unmarked) [Compound 66]
2,0.794,COCC(=O)N1CCOc2cc3c(cc21)OCC1C3=NOC1CN1CCN(C/C(C)=C/c2ccccc2)CC1 (centres unmarked) [Compound 15]
3,< 1,COc1cc2c(cc1N1CCN(C)CC1)OCC1C2=NOC1CN1CCN(CC(C)=Cc2ccccc2)CC1 (centres unmarked) [Compound 75]
4,< 1,COc1cc2c(cc1NCCN1CCCC1)OCC1C2=NOC1CN1CCN(CC(C)=Cc2ccccc2)CC1 (centres unmarked) [Compound 26]

# Molecular target: T3, hα2A receptor (Homo sapiens, UniProt P08913)
# T3 construct: expressed in transfected cells; host or cells: CHO cells
# T3 sequence (P08913 1-465): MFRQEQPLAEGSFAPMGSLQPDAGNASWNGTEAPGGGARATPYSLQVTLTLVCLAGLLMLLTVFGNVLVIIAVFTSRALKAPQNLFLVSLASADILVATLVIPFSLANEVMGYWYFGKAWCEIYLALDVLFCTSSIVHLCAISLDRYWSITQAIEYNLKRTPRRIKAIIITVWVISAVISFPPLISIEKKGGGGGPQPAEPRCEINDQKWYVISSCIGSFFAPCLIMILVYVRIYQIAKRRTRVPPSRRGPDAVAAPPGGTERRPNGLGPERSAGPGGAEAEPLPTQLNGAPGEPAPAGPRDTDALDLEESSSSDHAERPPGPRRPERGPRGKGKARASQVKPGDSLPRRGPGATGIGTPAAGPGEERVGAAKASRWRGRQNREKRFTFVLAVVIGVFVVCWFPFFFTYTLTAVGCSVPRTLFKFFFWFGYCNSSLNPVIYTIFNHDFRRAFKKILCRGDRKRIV
# Assay: Radioligand binding experiment for α2A-adrenergic receptor ([3H]-raulwolscine)
# Settings: CHO cell membranes with human α2A receptor, [3H]raulwolscine 1 nM; read-out: pIC50 α2A (converted)
# Procedure, shortened: as §1
row,SMILES,IC50 [nM]
1,C/C(=C\c1ccccc1)CN1CCN(CC2ON=C3c4ccc(N)cc4OCC32)CC1 (centres unmarked) [Compound 5],2.51
2,CC(=Cc1ccc(F)cc1)CN1CCN(CC2ON=C3c4ccc(N5CCN(c6ccccc6)CC5)cc4OCC32)CC1 (centres unmarked) [Compound 79],251
3,CC(=Cc1ccc(F)cc1)CN1CCN(CC2ON=C3c4ccc(NCCN5CCCC5)cc4OCC32)CC1 (centres unmarked) [Compound 28],63.1
4,C/C(=C\c1ccc(F)cc1)CN1CCN(CC2ON=C3c4cc5c(cc4OCC32)NCCO5)CC1 (centres unmarked) [Compound 90],15.8

# Second part, the compound after the results:
row,IC50 [nM],SMILES
1,5.01,CC(=Cc1ccccc1)CN1CCN(CC2ON=C3c4ccc(N(S(C)(=O)=O)S(C)(=O)=O)cc4OCC32)CC1 (centres unmarked) [Compound 66]
2,15.8,C/C(=C\c1ccccc1)CN1CCN(CC2ON=C3c4ccc(NCc5ccccc5)cc4OCC32)CC1 (centres unmarked) [Compound 2]
3,3.16,COCC(=O)N1CCOc2cc3c(cc21)OCC1C3=NOC1CN1CCN(C/C(C)=C/c2ccccc2)CC1 (centres unmarked) [Compound 15]
4,1.58,COc1cc2c(cc1N1CCN(C)CC1)OCC1C2=NOC1CN1CCN(CC(C)=Cc2ccccc2)CC1 (centres unmarked) [Compound 75]
5,5.01,COc1cc2c(cc1NCCN1CCCC1)OCC1C2=NOC1CN1CCN(CC(C)=Cc2ccccc2)CC1 (centres unmarked) [Compound 26]
